Where a chain is given by its changes, count along the chain named. Calls of active or inactive are those of the source. The rule behind the calls is not given here.
Assays:
[1] = test system: HCT-116; experiment: Effect on AT13387-induced HSF1 expression in human HCT-116 cells at 50 uM incubated for 24 hrs by Western blot analysis; type: functional, cell-based
[2] = test system: SW-620; experiment: Antiproliferative activity against human SW620 cells assessed as inhibition of cell proliferation at 1 to 100 uM incubated for 72 hrs by CCK8 assay; type: functional, cell-based; conditions: dose 1-100 µM
[3] = test system: HCT-116; experiment: Antiproliferative activity against human HCT-116 cells assessed as inhibition of cell proliferation at 1 to 100 uM incubated for 72 hrs by CCK8 assay; type: functional, cell-based; conditions: dose 1-100 µM
[4] = test system: HCT-116; experiment: Downregulation of AT13387-induced HSP40 expression in human HCT-116 cells at 50 uM incubated for 24 hrs by Western blot analysis; type: functional, cell-based
[5] = Half-life in Sprague-Dawley rat at 10 mg/kg, ip measured after 8 hrs by LC-MS/MS analysis; type: ADME, organism-based; conditions: in vivo
[6] = test system: HCT-116; experiment: Enhancement of HSP90 inhibitor AT13387-induced antiproliferative activity against human HCT-116 cells assessed as HSP90 inhibitor AT13387 IC50 at 50 uM incubated for 72 hrs by CCK8 assay (reference value: 78.49 nM); type: functional, cell-based; conditions: HCT-116, 72 h
[7] = test system: HCT-116; experiment: Antitumor activity against human HCT-116 cells xenografted in BALB/c nude mouse assessed as decrease in AT13387-induced HSP27 protein expression in tumor at 30 to 60 mg/kg, ip administered every other day for 14 days by Western blot analysis; type: functional, organism-based; conditions: dose 30-60 mg/kg, time 14.0 day
[8] = target: Dual specificity protein phosphatase 3 (Homo sapiens) (UniProt P51452); experiment: Inhibition of DUSP3 (unknown origin) using DiFMUP as substrate at 0.01 to 1000 uM; conditions: dose 0.01-1000 µM
Sequence of Dual specificity protein phosphatase 3 (Homo sapiens) (P51452 whole entry, looked up): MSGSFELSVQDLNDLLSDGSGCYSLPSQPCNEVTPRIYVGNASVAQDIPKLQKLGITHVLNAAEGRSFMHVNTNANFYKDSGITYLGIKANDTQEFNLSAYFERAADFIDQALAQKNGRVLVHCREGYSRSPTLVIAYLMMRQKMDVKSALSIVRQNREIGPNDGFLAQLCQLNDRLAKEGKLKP

[9] = test system: T1, Serine/threonine-protein phosphatase 5 (Homo sapiens), P53041 [E428A]; experiment: Binding affinity to PP5 E428A mutant (unknown origin) by ITC analysis
T1 sequence (whole entry): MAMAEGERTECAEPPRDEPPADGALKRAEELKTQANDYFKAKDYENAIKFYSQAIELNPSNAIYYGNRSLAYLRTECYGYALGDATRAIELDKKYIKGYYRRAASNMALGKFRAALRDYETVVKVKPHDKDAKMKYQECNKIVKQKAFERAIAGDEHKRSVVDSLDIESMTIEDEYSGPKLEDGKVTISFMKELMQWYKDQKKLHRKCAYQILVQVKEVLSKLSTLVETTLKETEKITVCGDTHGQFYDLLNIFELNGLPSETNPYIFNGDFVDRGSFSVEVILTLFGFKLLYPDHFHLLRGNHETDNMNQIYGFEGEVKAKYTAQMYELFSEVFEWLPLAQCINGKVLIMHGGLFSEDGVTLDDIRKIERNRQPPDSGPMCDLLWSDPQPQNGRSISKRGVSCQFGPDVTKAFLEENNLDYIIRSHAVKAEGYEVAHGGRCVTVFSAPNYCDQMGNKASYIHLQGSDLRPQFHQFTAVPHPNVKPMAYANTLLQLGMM

[10] = target: T2, Serine/threonine-protein phosphatase 5 (Homo sapiens) (UniProt P53041); experiment: Binding affinity to His-tagged human PP5 TPR domain extracted from Escherichia coli BL21 by ITC analysis
T2 sequence (whole entry): T1 sequence (whole entry) with A428E

[11] = test system: HCT-116; experiment: Downregulation of AT13387-induced HSP70 mRNA expression in human HCT-116 cells at 50 uM incubated for 24 hrs by qRT-PCR analysis; type: functional, cell-based
[12] = test system: SW-620; experiment: Enhancement of HSP90 inhibitor AT13387-induced antiproliferative activity against human SW620 cells assessed as HSP90 inhibitor AT13387 IC50 at 50 uM incubated for 72 hrs by CCK8 assay (reference value: 122.3 nM); type: functional, cell-based; conditions: SW-620, 72 h
[13] = Toxicity in BALB/c nude mouse xenografted with human HCT-116 cells assessed as body weight loss at 60 mg/kg, ip administered every other day for 14 days; type: organism-based; conditions: in vivo, 336 h, time 14 day
[14] = test system: HCT-116; experiment: Downregulation of AT13387-induced HSP27 expression in human HCT-116 cells at 50 uM incubated for 24 hrs by Western blot analysis; type: functional, cell-based
[15] = test system: HCT-116; experiment: Antitumor activity against human HCT-116 cells xenografted in BALB/c nude mouse at 30 to 60 mg/kg, ip administered every other day for 14 days in presence of AT13387; type: functional, organism-based; conditions: dose 30-60 mg/kg, time 14.0 day
[16] = AUC (0 to t) in Sprague-Dawley rat at 10 mg/kg, ip measured after 8 hrs by LC-MS/MS analysis; type: ADME, organism-based; conditions: in vivo
[17] = test system: HCT-116; experiment: Effect on HSP70 expression level in human HCT-116 cells at 1 to 100 uM incubated for 24 hrs by Western blot analysis; type: functional, cell-based; conditions: dose 1-100 µM
[18] = test system: HCT-116; experiment: Enhancement of HSP90 inhibitor AT13387-induced antiproliferative activity against human HCT-116 cells assessed as fold change in HSP90 inhibitor AT13387 IC50 at 50 uM incubated for 72 hrs by CCK8 assay; type: functional
[19] = target: T3, Tyrosine-protein phosphatase non-receptor type 2 (Homo sapiens) (UniProt P17706); experiment: Inhibition of PTPN2 (unknown origin) using DiFMUP as substrate at 0.01 to 1000 uM; conditions: dose 0.01-1000 µM
T3 sequence (whole entry): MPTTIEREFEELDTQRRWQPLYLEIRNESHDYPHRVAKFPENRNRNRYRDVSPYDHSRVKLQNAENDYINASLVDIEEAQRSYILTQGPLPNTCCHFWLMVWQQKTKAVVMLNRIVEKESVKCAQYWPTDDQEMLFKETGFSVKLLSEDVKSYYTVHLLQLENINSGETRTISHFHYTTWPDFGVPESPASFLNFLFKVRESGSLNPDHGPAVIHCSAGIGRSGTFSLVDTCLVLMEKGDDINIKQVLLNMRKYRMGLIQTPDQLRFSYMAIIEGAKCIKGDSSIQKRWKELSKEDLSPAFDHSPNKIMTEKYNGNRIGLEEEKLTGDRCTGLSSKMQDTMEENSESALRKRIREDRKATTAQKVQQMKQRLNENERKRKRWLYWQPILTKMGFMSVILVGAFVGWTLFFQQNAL

half-life [5]: 1.59 h
IC50 [6]: 40.8 nM
inhibition [8]: inactive
Activity [9]: inactive
Activity [10]: inactive
IC50 [12]: 54.4 nM
AUC(0-t) at 8 h [16]: 111 ng·h/mL
inhibition [19]: inactive
Compound: N=c1oc2cc(F)cc(F)c2cc1C(N)=S
Activity [1]: inactive
Activity [2]: inactive
Activity [3]: inactive
Activity [4]: Active
Activity [7]: Active
Activity [11]: Active
Activity [13]: Non-Toxic
Activity [14]: Active
Activity [15]: Active
Activity [17]: inactive
fold change (FC) [18]: 2

— ChEMBL document CHEMBL5579878, “Allosteric Activation of Protein Phosphatase 5 with Small Molecules” (J Med Chem, 2024)
